Assay results: US5674879A, “Compositions including and methods of using conformationally restricted angiotensin II antagonist” (G.D. Searle & Co., priority 1995, dated 1997)
Where two headings read alike, the source gives them in different places.

What was measured:
[1] = biological target: T1, rabbit aortic rings (angiotensin II contraction) (Oryctolagus cuniculus, UniProt P34976); experiment: Assay B: In Vitro Vascular Smooth Muscle Response for AII (rabbit aortic rings); format: cell-based, rabbit (male New Zealand white); settings: rabbit aorta rings, antagonist 10^-5 M for 5 min, 37° C., read-out: Assay B pA2 (converted)
T1 construct: The thoracic aorta was removed, cleaned of adherent fat and connective tissue and then cut into 3-mm ring segments; from tissue; host or cells: rabbit thoracic aorta rings, endothelium removed
T1 sequence (P34976 1-359): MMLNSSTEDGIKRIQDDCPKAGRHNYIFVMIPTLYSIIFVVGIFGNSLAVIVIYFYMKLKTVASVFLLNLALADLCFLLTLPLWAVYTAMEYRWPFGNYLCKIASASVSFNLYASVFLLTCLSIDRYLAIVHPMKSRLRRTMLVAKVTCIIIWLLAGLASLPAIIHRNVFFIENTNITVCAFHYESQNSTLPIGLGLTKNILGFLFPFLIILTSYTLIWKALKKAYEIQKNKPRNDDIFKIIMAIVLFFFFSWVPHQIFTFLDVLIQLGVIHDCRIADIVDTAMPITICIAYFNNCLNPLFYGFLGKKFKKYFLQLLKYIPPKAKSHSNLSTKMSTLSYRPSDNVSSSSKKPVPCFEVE
Procedure: Assay B: In Vitro Vascular Smooth Muscle-Response for AII
The compounds of the invention were tested for antagonist activity in rabbit aortic rings. Male New Zealand white rabbits (2-2.5 kg) were sacrificed using an overdose of pentobarbital and exsanguinated via the carotid arteries. The thoracic aorta was removed, cleaned of adherent fat and connective tissue and then cut into 3-mm ring segments. The endothelium was removed from the rings by gently sliding a rolled-up piece of filter paper into the vessel lumen. The rings were then mounted in a water-jacketed tissue bath, maintained at 37° C., between moveable and fixed ends of a stainless steel wire with the moveable end attached to an FT03 Grass transducer coupled to a Model 7D Grass Polygraph for recording isometric force responses. The bath was filled with 20 ml of oxygenated (95% oxygen/5% carbon dioxide) Krebs solution of the following composition (mM): 130 NaCl, 15 NaHCO3, […], 1.2 NaH2 PO4, 1.2 MgSO4, 2.5 CaCl2, and 11.4 glucose. The preparations were equilibrated for one hour before approximately one gram of passive tension was placed on the rings. Angiotensin II concentration-response curves were then recorded (3×10^-10 to 1×10^-5 M). Each concentration of AII was allowed to elicit its maximal contraction, and then AII was washed out repeatedly for 30 minutes before rechallenging with a higher concentration of AII. Aorta rings were exposed to the test antagonist at 10^-5 M for 5 minutes before challenging with AII. Adjacent segments of the same aorta ring were used for all concentration-response curves in the presence or absence of the test antagonist. The effectiveness of the test compound was expressed in terms of pA2 values and were calculated according to H. O. Schild [Br. J. Pharmacol. Chemother., 2, 189-206 (1947)]. The pA2 value is the concentration of the antagonist which increases the IC50 value for AII by a factor of two. Each test antagonist was evaluated in aorta rings from two rabbits.

[2] = biological target: smooth muscle angiotensin II receptor; experiment: Assay A: Angiotensin II Binding Activity (displacement of 125I-angiotensin II, rat uterine membrane preparation); settings: 50% displacement of specifically bound 125I-AII, rat uterine membranes, 25° C., 60 min, pH 7.5
Procedure: Assay A: Angiotensin II Binding Activity
Compounds of the invention were tested for ability to bind to the smooth muscle angiotensin II receptor using a rat uterine membrane preparation. Angiotensin II (AII) was purchased from Peninsula Labs. ^125 I-angiotensin II (specific activity of 2200 Ci/mmol) was purchased from Du Pont-New England Nuclear. Other chemicals were obtained from Sigma Chemical Co. This assay was carried out according to the method of Douglas et al [Endocrinology, 106, 120-124 (1980)]. Rat uterine membranes were prepared from fresh tissue. All procedures were carried out at 4° C. Uteri were stripped of fat and homogenized in phosphate-buffered saline at pH 7.4 containing 5 mM EDTA. The homogenate was centrifuged at 1500×g for 20 min., and the supernatant was recentrifuged at 100,000×g for 60 min. The pellet was resuspended in buffer consisting of 2 mM EDTA and 50 mM Tris-HCl (pH 7.5) to a final protein concentration of 4 mg/ml. Assay tubes were charged with 0.25 ml of a solution containing 5 mM MgCl2, 2 mM EDTA, 0.5% bovine serum albumin, 50 mM Tris-HCl, pH 7.5 and ^125 I-AII (approximately 10^5 cpm) in the absence or in the presence of unlabelled ligand. The reaction was initiated by the addition of membrane protein and the mixture was incubated at 25° C. for 60 min. The incubation was terminated with ice-cold 50 mM Tris-HCl (pH 7.5) and the mixture was filtered to separate membrane-bound labeled peptide from the free ligand. The incubation tube and filter were washed with ice-cold buffer. Filters were assayed for radioactivity in a Micromedic gamma counter. Nonspecific binding was defined as binding in the presence of 10 μM of unlabelled AII. Specific binding was calculated as total binding minus nonspecific binding. The receptor binding affinity of an AII antagonist compound was indicated by the concentration (IC50) of the tested AII antagonist which gives 50% displacement of the total specifically bound ^125 I-AII from the high affinity AII receptor. Binding data were analyzed by a nonlinear least-squares curve fitting program.

[3] = first of two values in the cell (rings from two rabbits)
[4] = second of two values in the cell (rings from two rabbits)

Structure (SMILES) | Kb [1, 3] | Kb [1, 4] | IC50 [2]
CCCCc1nc(CCCC)n2c1C=CCC2c1ccc(-c2ccccc2-c2nnn[nH]2)cc1 (stereo not shown) [Example 1, 1,3-Dibutyl-5,6-dihydro-5-[2'-(1H-tetrazol-5-yl)[1,1'-biphenyl]-4-yl]imidazo[1,5-a]pyridine] | 398 nM | 537 nM | 190 nM
CCCCc1nc(CCCC)n2c1C=C(Br)CC2c1ccc(-c2ccccc2-c2nnn[nH]2)cc1 (stereo not shown) [Example 2, 7-Bromo-1,3-dibutyl-5,6-dihydro-5-[2'-(1H-tetrazol-5-yl)[1,1'-biphenyl]-4-yl]imidazo[1,5-a]pyridine] | 1450 nM | 263 nM | 2100 nM
CCCCc1nc(CCCC)n2c1CCCC2c1ccc(-c2ccccc2-c2nnn[nH]2)cc1 (stereo not shown) [Example 3, 1,3-Dibutyl-5,6,7,8-tetrahydro-5-[2'-(1H-tetrazol-5-yl)[1,1'-biphenyl]-4-yl]imidazo[1,5-a]pyridine] | 53.7 nM | 224 nM | 270 nM
CCCCc1nc(CCCC)n2c1C(O)CCC2c1ccc(-c2ccccc2-c2nnn[nH]2)cc1 (stereo not shown) [Example 4, 1,3-Dibutyl-5,6,7,8-tetrahydro-5-[2'-(1H-tetrazol-5-yl)[1,1'-biphenyl]-4-yl]imidazo[1,5-a]pyridin-8-ol] | 22.4 nM | 14.5 nM | 51 nM
CCCCc1nc(CCCC)n2c1C(=O)CCC2c1ccc(-c2ccccc2-c2nn[nH]n2)cc1 (stereo not shown) [Example 5, 1,3-Dibutyl-5,6-dihydro-5-[2'-(1H-tetrazol-5-yl)[1,1'-biphenyl]-4-yl]imidazo[1,5-a]pyridin-8(5H)-one] | 13.8 nM | 7.08 nM | 60 nM
CCCCc1nc(CCCC)n2c1C(c1ccccc1)=CCC2c1ccc(-c2ccccc2-c2nnn[nH]2)cc1 (stereo not shown) [Example 6, 1,3-Dibutyl-5,6-dihydro-8-phenyl-5-[2'-(1H-tetrazol-5-yl)[1,1'-biphenyl]-4-yl]imidazo[1,5-a]pyridine] | – | – | 2800 nM
CCCCc1nc(CCCC)n2c1C(=CC(=O)O)CCC2c1ccc(-c2ccccc2-c2nnn[nH]2)cc1 (stereo not shown) [Example 7, [1,3-Dibutyl-6,7-dihydro-5-[2'-(1H-tetrazol-5-yl)[1,1'-biphenyl]-4-yl]imidazo[1,5-a]pyridin-8(5H)-ylidene]acetic acid] | – | – | 15000 nM
CCCCc1nc(CCCC)n2c1C(N1C(=O)CCC1=O)CCC2c1ccc(-c2ccccc2-c2nnn[nH]2)cc1 (stereo not shown) [Example 8, 1-[1,3-Dibutyl-5,6,7,8-tetrahydro-5-[2'-(1H-tetrazol-5-yl)[1,1'-biphenyl]-4-yl]imidazo[1,5-a]pyridin-8-yl]-2,5-pyrrolidinedione] | – | – | 27 nM
CCCCc1nc(CCCC)n2c1C(NC(=O)CCC(=O)NN)CCC2c1ccc(-c2ccccc2-c2nn[nH]n2)cc1 (stereo not shown) [Example 9] | 70.8 nM | 57.5 nM | 44 nM

Further lines, results first:

Kb [1, 3] | Kb [1, 4] | IC50 [2] | Structure (SMILES)
100 nM | 138 nM | 23 nM | CCCCc1ncc2n1[C@@H](c1ccc(-c3ccccc3-c3nn[nH]n3)cc1)CC[C@H]2O (relative stereo) [Example 13, 3-Butyl-5,6,7,8-tetrahydro-5-[2'-(1H-tetrazol-5-yl)[1,1'-biphenyl]-4-yl]imidazo[1,5-a]pyridin-cis-8-ol]
331 nM | 550 nM | 120 nM | CCCCc1ncc2n1[C@@H](c1ccc(-c3ccccc3-c3nn[nH]n3)cc1)CC[C@@H]2O (relative stereo) [Example 14, 3-Butyl-5,6,7,8-tetrahydro-5-[2'-(1H-tetrazol-5-yl)[1,1'-biphenyl]-4-yl]imidazo[1,5-a]pyridin-trans-8-ol]
70.8 nM | 141 nM | 67 nM | CCCCc1ncc2n1[C@@H](c1ccc(-c3ccccc3-c3nn[nH]n3)cc1)CC[C@H]2CC(=O)OC(C)(C)C (relative stereo) [Example 19, 1,1-Dimethylethyl 3-butyl-5,6,7,8-tetrahydro-5-[2'-(1H-tetrazol-5-yl)[1,1'-biphenyl]-4-yl]imidazo[1,5-a]pyridin-cis-8-acetate]
129 nM | 141 nM | 240 nM | CCCCc1ncc2n1[C@@H](c1ccc(-c3ccccc3-c3nn[nH]n3)cc1)CC[C@H]2CC(=O)O (relative stereo) [Example 20, 3-Butyl-5,6,7,8-tetrahydro-5-[2'-(1H-tetrazol-5-yl)[1,1'-biphenyl]-4-yl]imidazo[1,5-a]pyridin-cis-8-acetic acid]
– | – | 36 nM | CCCCc1ncc2n1[C@H](c1ccc(-c3ccccc3-c3nnn[nH]3)cc1)CC[C@@H]2OCc1ccccc1 (relative stereo) [Example 24, 3-Butyl-5,6,7,8-tetrahydro-5-[2'-(1H-tetrazol-5-yl)[1,1'-biphenyl]-4-yl]-cis-8-phenylmethoxy-imidazo[1,5-a]pyridine]
– | – | 330 nM | CCCCc1nc(CCCC)n2c1C=CCCC2c1ccc(-c2ccccc2-c2nnn[nH]2)cc1 (stereo not shown) [Example 10, 1,3-Dibutyl-6,7-dihydro-5-[2'-(1H-tetrazol-5-yl)[1,1'-biphenyl]-4-yl]-5H-imidazo[1,5-a]azepine]
– | – | 120 nM | CCCCc1ncc2n1C(c1ccc(-c3ccccc3-c3nnn[nH]3)cc1)CC=C2 (stereo not shown) [Example 11, 3-Butyl-5,6-dihydro-5-[2'-(1H-tetrazol-5-yl)[1,1'-biphenyl]-4-yl]imidazo[1,5-a]pyridine]
219 nM | 89.1 nM | 110 nM | CCCCc1ncc2n1C(c1ccc(-c3ccccc3-c3nn[nH]n3)cc1)CCC2=O (stereo not shown) [Example 12, 3-Butyl-5,6-dihydro-5-[2'-(1H-tetrazol-5-yl)[1,1'-biphenyl]-4-yl]imidazo[1,5-a]pyridin-8(5H)-one]
347 nM | 186 nM | 160 nM | CCCCc1ncc2n1C(c1ccc(-c3ccccc3-c3nnn[nH]3)cc1)CCC2=CC(=O)OC(C)(C)C (stereo not shown) [Example 15, 1,1-Dimethylethyl [3-butyl-6,7-dihydro-5-[2'-(1H-tetrazol-5-yl)[1,1'-biphenyl]-4-yl]imidazo[1,5-a]pyridin-8(5H)-ylidene]acetate]
7.76 nM | 16.2 nM | 440 nM | CCCCc1ncc2n1C(c1ccc(-c3ccccc3-c3nnn[nH]3)cc1)CCC2=CC(=O)O (stereo not shown) [Example 16, [3-Butyl-6,7-dihydro-5-[2'-(1H-tetrazol-5-yl)[1,1'-biphenyl]-4-yl]imidazo[1,5-a]pyridin-8(5H)-ylidene]acetic acid]
– | – | 200 nM | CCCCc1ncc2n1C(c1ccc(-c3ccccc3-c3nnn[nH]3)cc1)CC=C2CC(=O)O (stereo not shown) [Example 18, 3-Butyl-5,6-dihydro-5-[2'-(1H-tetrazol-5-yl)[1,1'-biphenyl]-4-yl]imidazo[1,5-a]pyridin-8-acetic acid]
